In publication PMC6563616, “Thymine DNA glycosylase as a novel target for melanoma” (Oncogene, 2019):

Assays:
[1] = target: T1, thymine DNA glycosylase (TDG) (Homo sapiens, UniProt Q13569); test: molecular beacon screen with recombinant TDG, confirmed in radioactive DNA glycosylase assay; format: biochemical
[2] = target: T1, thymine DNA glycosylase (TDG); test: radioactive DNA glycosylase assay with purified recombinant TDG; TDG/APE1 molecular beacon assay (dose-dependent); 5caC increase in cells; format: biochemical

T1 sequence (Q13569 whole entry): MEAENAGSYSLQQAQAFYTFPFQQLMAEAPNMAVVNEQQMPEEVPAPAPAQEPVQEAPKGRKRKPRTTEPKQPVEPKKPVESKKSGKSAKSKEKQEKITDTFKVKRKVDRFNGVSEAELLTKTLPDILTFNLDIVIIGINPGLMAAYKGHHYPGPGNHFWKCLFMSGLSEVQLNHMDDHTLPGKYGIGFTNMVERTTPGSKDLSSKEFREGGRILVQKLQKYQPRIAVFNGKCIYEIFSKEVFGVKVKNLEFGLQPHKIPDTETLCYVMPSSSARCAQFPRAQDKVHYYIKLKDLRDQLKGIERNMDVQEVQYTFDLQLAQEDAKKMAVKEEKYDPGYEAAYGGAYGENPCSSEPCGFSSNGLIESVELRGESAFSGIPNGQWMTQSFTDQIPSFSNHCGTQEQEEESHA

Structure (SMILES)	molecular beacon screen with recombinant TDG, confirmed in radioactive DNA glyco [1]	radioactive DNA glycosylase assay with purified recombinant TDG; TDG/APE1 molecu [2]
C=CC1=C(C(=O)O)N2C(=O)[C@@H](NC(=O)/C(=N\OCC(=O)O)c3csc(N)n3)[C@H]2SC1 [cefixime]	including closantel, juglone, and cefixime, were confirmed as TDG inhibitors in a standard, radioactive DNA glycosylase assay	–
Cc1cc(C(C#N)c2ccc(Cl)cc2)c(Cl)cc1NC(=O)c1cc(I)cc(I)c1O (stereo not drawn) [closantel]	–	including closantel, juglone, and cefixime, were confirmed as TDG inhibitors in a standard, radioactive DNA glycosylase assay
O=C1C=CC(=O)c2c(O)cccc21 [juglone]	–	including closantel, juglone, and cefixime, were confirmed as TDG inhibitors in a standard, radioactive DNA glycosylase assay
